pIC50: −log10 of the molar value. Positions of bridges follow the written chain, without caps; N, C: chain ends. Non-standard residues stand in square brackets, D forms with d. Residues, ends and D or L forms follow the SMILES beside them. NMeW = CN[C@@H](Cc1c[nH]c2ccccc12)C(=O)O; Cha = N[C@@H](CC1CCCCC1)C(=O)O; Phg = N[C@H](C(=O)O)c1ccccc1
Legend:
Assay in all cases: cell-based
[1] = target: hNav1.7 (Homo sapiens, UniProt Q15858); type: cell-based; settings: Table 25; IonWorks Quattro, use; […]; read-out: IWQ Use Nav1.7
[2] = target: hNav1.5 (Homo sapiens, UniProt Q14524); settings: Table 25; IonWorks Quattro, use; […]; read-out: IWQ Use Nav1.5
hNav1.5, sequence (Q14524 whole entry, looked up): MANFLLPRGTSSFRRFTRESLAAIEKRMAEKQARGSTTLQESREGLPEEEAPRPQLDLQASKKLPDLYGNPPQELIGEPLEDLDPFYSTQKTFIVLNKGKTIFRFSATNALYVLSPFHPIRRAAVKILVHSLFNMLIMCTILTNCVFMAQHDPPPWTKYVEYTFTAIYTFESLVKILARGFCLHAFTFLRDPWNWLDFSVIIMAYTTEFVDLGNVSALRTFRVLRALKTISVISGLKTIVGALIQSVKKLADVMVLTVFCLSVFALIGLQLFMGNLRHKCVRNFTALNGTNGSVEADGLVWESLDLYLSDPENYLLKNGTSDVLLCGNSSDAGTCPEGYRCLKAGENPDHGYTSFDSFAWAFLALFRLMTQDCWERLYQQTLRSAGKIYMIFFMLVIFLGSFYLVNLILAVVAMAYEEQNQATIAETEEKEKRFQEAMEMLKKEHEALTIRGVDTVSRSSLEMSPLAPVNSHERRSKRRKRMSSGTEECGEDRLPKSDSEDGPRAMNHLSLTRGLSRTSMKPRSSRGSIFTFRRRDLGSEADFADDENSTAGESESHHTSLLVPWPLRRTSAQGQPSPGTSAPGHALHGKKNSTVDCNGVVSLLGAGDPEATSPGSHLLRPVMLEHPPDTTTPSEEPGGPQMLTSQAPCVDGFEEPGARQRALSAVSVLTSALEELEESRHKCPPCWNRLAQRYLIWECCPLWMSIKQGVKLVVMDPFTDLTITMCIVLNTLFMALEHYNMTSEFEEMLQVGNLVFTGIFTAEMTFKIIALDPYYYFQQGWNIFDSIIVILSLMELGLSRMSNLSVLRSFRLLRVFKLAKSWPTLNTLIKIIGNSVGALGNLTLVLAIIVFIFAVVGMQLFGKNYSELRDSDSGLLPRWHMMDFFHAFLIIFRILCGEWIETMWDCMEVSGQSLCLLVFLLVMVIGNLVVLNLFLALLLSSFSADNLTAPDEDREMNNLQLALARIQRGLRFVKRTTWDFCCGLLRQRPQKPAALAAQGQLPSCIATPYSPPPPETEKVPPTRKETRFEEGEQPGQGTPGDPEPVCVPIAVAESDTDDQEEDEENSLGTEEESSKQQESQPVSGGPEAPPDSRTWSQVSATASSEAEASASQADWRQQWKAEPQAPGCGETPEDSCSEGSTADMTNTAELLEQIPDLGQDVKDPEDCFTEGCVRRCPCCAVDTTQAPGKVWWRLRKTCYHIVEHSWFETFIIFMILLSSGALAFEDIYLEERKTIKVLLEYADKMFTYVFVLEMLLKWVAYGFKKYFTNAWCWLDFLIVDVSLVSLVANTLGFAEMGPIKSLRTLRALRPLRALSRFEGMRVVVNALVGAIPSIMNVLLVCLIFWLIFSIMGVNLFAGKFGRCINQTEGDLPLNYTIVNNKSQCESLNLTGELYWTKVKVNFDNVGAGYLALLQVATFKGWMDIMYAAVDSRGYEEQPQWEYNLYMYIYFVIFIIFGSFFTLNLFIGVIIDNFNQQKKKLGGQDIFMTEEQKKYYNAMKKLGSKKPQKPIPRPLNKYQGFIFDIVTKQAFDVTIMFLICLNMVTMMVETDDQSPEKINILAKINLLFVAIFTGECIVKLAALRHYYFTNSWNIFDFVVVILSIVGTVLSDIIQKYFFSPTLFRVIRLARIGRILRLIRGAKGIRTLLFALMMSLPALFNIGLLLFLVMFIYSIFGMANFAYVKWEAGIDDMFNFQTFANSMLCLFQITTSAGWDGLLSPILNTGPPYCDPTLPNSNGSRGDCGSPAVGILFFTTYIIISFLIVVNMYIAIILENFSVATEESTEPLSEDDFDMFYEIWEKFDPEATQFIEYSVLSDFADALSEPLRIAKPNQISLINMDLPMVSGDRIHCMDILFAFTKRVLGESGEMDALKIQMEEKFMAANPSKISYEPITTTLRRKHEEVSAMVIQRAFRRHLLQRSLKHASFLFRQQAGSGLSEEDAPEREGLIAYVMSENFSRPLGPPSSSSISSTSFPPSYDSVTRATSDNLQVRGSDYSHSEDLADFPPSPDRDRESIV

[3] = target: hNav1.3 (Homo sapiens, UniProt Q9NY46); settings: Table 25; IonWorks Quattro, use; […]; read-out: IWQ Use Nav1.3
hNav1.3, sequence (Q9NY46 whole entry, looked up): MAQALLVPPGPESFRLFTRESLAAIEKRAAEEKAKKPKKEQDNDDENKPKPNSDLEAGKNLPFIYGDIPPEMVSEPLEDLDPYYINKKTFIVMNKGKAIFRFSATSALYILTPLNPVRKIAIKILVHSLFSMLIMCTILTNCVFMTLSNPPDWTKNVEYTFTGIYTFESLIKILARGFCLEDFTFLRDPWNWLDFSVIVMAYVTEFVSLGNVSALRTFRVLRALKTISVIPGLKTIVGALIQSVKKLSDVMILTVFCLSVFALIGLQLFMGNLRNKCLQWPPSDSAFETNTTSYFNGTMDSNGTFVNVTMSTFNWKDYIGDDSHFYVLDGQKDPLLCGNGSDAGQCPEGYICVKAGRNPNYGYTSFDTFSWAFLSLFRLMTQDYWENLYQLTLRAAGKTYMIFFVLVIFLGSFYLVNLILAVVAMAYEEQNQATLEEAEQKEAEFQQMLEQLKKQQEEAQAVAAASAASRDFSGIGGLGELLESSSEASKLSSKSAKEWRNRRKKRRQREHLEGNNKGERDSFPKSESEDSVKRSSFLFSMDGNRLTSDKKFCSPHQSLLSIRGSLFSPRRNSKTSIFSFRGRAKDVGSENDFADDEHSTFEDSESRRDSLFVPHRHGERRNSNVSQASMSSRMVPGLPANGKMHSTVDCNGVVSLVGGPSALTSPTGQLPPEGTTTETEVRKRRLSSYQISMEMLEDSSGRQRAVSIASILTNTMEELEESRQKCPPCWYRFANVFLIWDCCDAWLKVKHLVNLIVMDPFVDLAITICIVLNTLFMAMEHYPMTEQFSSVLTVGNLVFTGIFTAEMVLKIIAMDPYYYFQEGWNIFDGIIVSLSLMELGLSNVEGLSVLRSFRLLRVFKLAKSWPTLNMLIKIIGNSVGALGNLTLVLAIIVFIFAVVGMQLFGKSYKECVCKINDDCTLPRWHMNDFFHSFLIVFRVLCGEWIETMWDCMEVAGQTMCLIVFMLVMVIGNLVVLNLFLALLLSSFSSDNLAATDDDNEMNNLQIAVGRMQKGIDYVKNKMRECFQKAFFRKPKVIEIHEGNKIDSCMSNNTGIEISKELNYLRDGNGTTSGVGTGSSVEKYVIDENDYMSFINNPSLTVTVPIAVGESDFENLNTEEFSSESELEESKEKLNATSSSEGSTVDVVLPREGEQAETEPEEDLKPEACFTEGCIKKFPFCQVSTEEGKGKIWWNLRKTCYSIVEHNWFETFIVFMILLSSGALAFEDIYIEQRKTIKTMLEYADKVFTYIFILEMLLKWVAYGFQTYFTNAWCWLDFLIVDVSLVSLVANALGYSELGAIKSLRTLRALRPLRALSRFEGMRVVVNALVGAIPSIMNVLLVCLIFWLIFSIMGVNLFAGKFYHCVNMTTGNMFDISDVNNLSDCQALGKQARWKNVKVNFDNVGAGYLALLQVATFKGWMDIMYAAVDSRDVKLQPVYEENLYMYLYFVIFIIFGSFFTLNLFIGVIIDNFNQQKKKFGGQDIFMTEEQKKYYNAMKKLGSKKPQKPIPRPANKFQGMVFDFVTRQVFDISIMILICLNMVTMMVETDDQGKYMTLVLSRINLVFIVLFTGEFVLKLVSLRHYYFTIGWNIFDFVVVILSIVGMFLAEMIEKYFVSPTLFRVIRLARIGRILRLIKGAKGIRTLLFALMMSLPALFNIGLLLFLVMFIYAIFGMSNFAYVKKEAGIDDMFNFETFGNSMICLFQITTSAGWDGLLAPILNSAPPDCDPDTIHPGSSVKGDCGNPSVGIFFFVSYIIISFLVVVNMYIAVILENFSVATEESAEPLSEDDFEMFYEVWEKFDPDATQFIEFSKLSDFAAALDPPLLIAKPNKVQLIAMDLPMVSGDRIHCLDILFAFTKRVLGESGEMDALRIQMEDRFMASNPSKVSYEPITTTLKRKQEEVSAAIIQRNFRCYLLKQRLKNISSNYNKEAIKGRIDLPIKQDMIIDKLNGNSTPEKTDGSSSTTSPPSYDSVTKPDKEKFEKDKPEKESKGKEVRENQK

SMILES	pIC50 [1]	pIC50 [2]	pIC50 [3]
CC[C@H](C)[C@@H]1NC(=O)[C@@H]2CSSC[C@@H]3NC(=O)[C@H](C(C)C)NC(=O)[C@H](CC(C)C)NC(=O)[C@H](CC(N)=O)NC(=O)[C@@H]4CCCN4C(=O)[C@H](CCCNC(=N)N)NC(=O)[C@H](CSSC[C@H](NC(=O)[C@@H](N)CC(=O)O)C(=O)N[C@@H](CC(C)C)C(=O)NCC(=O)N[C@@H](Cc4ccccc4)C(=O)N[C@@H](CCSC)C(=O)N[C@@H](CCCNC(=N)N)C(=O)N[C@@H](CCCCN)C(=O)N2)NC(=O)[C@H](CSSC[C@@H](C(=O)N[C@@H](CCCCN)C(=O)N(C)[C@@H](Cc2c[nH]c4ccccc24)C(=O)N[C@H](C(=O)N[C@@H](Cc2ccccc2)C(N)=O)C(C)C)NC(=O)[C@H](Cc2c[nH]c4ccccc24)NC(=O)[C@H](CCCCN)NC(=O)[C@H](Cc2c[nH]cn2)NC(=O)[C@H]([C@@H](C)O)NC(=O)[C@H](CCCNC(=N)N)NC(=O)[C@H](CO)NC3=O)NC(=O)[C@H](CCCCN)NC(=O)[C@H](CC(=O)O)NC(=O)[C@H](CC(N)=O)NC(=O)[C@H](CC(=O)O)NC(=O)[C@@H]2CCCN2C1=O [compound 371] (H-DCLGFMRKCIPDNDKCCRPNLVCSRTHKWCK[NMeW]VF-NH2; disulfide 2-17, 9-23, 16-30)	5.31	< 5.30	< 5.30
CC[C@H](C)[C@@H]1NC(=O)[C@@H]2CSSC[C@@H]3NC(=O)[C@H](C(C)C)NC(=O)[C@H](CC(C)C)NC(=O)[C@H](CC(N)=O)NC(=O)[C@@H]4CCCN4C(=O)[C@H](CCCNC(=N)N)NC(=O)[C@H](CSSC[C@H](NC(=O)[C@@H](N)CC(=O)O)C(=O)N[C@@H](CC(C)C)C(=O)NCC(=O)N[C@@H](Cc4ccccc4)C(=O)N[C@@H](CCSC)C(=O)N[C@@H](CCCNC(=N)N)C(=O)N[C@@H](CCCCN)C(=O)N2)NC(=O)[C@H](CSSC[C@@H](C(=O)N[C@@H](CCCCN)C(=O)N[C@H](C(=O)N[C@H](C(=O)N[C@@H](Cc2ccccc2)C(N)=O)C(C)C)C(C)C)NC(=O)[C@H](Cc2c[nH]c4ccccc24)NC(=O)[C@H](CCCCN)NC(=O)[C@H](Cc2c[nH]cn2)NC(=O)[C@H]([C@@H](C)O)NC(=O)[C@H](CCCNC(=N)N)NC(=O)[C@H](CO)NC3=O)NC(=O)[C@H](CCCCN)NC(=O)[C@H](CC(=O)O)NC(=O)[C@H](CC(N)=O)NC(=O)[C@H](CC(=O)O)NC(=O)[C@@H]2CCCN2C1=O [compound 372] (H-DCLGFMRKCIPDNDKCCRPNLVCSRTHKWCKVVF-NH2; disulfide 2-17, 9-23, 16-30)	6.82	4.83	7.10
CC[C@H](C)[C@@H]1NC(=O)[C@@H]2CSSC[C@@H]3NC(=O)[C@H](C(C)C)NC(=O)[C@H](CC(C)C)NC(=O)[C@H](CC(N)=O)NC(=O)[C@@H]4CCCN4C(=O)[C@H](CCCNC(=N)N)NC(=O)[C@H](CSSC[C@H](NC(=O)[C@@H](N)CC(=O)O)C(=O)N[C@@H](CC(C)C)C(=O)NCC(=O)N[C@@H](Cc4ccccc4)C(=O)N[C@@H](CCSC)C(=O)N[C@@H](CCCNC(=N)N)C(=O)N[C@@H](CCCCN)C(=O)N2)NC(=O)[C@H](CSSC[C@@H](C(=O)N[C@@H](CCCCN)C(=O)N[C@@H](CC(C)C)C(=O)N[C@H](C(=O)N[C@@H](Cc2ccccc2)C(N)=O)C(C)C)NC(=O)[C@H](Cc2c[nH]c4ccccc24)NC(=O)[C@H](CCCCN)NC(=O)[C@H](Cc2c[nH]cn2)NC(=O)[C@H]([C@@H](C)O)NC(=O)[C@H](CCCNC(=N)N)NC(=O)[C@H](CO)NC3=O)NC(=O)[C@H](CCCCN)NC(=O)[C@H](CC(=O)O)NC(=O)[C@H](CC(N)=O)NC(=O)[C@H](CC(=O)O)NC(=O)[C@@H]2CCCN2C1=O [compound 373] (H-DCLGFMRKCIPDNDKCCRPNLVCSRTHKWCKLVF-NH2; disulfide 2-17, 9-23, 16-30)	6.92	5.05	7.10
CC[C@H](C)[C@@H]1NC(=O)[C@@H]2CSSC[C@@H]3NC(=O)[C@H](C(C)C)NC(=O)[C@H](CC(C)C)NC(=O)[C@H](CC(N)=O)NC(=O)[C@@H]4CCCN4C(=O)[C@H](CCCNC(=N)N)NC(=O)[C@H](CSSC[C@H](NC(=O)[C@@H](N)CC(=O)O)C(=O)N[C@@H](CC(C)C)C(=O)NCC(=O)N[C@@H](Cc4ccccc4)C(=O)N[C@@H](CCSC)C(=O)N[C@@H](CCCNC(=N)N)C(=O)N[C@@H](CCCCN)C(=O)N2)NC(=O)[C@H](CSSC[C@@H](C(=O)N[C@@H](CCCCN)C(=O)N[C@H](C(=O)N[C@H](C(=O)N[C@@H](Cc2ccccc2)C(N)=O)C(C)C)c2ccccc2)NC(=O)[C@H](Cc2c[nH]c4ccccc24)NC(=O)[C@H](CCCCN)NC(=O)[C@H](Cc2c[nH]cn2)NC(=O)[C@H]([C@@H](C)O)NC(=O)[C@H](CCCNC(=N)N)NC(=O)[C@H](CO)NC3=O)NC(=O)[C@H](CCCCN)NC(=O)[C@H](CC(=O)O)NC(=O)[C@H](CC(N)=O)NC(=O)[C@H](CC(=O)O)NC(=O)[C@@H]2CCCN2C1=O [compound 374] (H-DCLGFMRKCIPDNDKCCRPNLVCSRTHKWCK[Phg]VF-NH2; disulfide 2-17, 9-23, 16-30)	6.85	5.15	7.00
CC[C@H](C)[C@@H]1NC(=O)[C@@H]2CSSC[C@@H]3NC(=O)[C@H](C(C)C)NC(=O)[C@H](CC(C)C)NC(=O)[C@H](CC(N)=O)NC(=O)[C@@H]4CCCN4C(=O)[C@H](CCCNC(=N)N)NC(=O)[C@H](CSSC[C@H](NC(=O)[C@@H](N)CC(=O)O)C(=O)N[C@@H](CC(C)C)C(=O)NCC(=O)N[C@@H](Cc4ccccc4)C(=O)N[C@@H](CCSC)C(=O)N[C@@H](CCCNC(=N)N)C(=O)N[C@@H](CCCCN)C(=O)N2)NC(=O)[C@H](CSSC[C@@H](C(=O)N[C@@H](CCCCN)C(=O)N[C@@H](CC2CCCCC2)C(=O)N[C@H](C(=O)N[C@@H](Cc2ccccc2)C(N)=O)C(C)C)NC(=O)[C@H](Cc2c[nH]c4ccccc24)NC(=O)[C@H](CCCCN)NC(=O)[C@H](Cc2c[nH]cn2)NC(=O)[C@H]([C@@H](C)O)NC(=O)[C@H](CCCNC(=N)N)NC(=O)[C@H](CO)NC3=O)NC(=O)[C@H](CCCCN)NC(=O)[C@H](CC(=O)O)NC(=O)[C@H](CC(N)=O)NC(=O)[C@H](CC(=O)O)NC(=O)[C@@H]2CCCN2C1=O [compound 375] (H-DCLGFMRKCIPDNDKCCRPNLVCSRTHKWCK[Cha]VF-NH2; disulfide 2-17, 9-23, 16-30)	7.30	5.05	7.70
CC[C@H](C)[C@@H]1NC(=O)[C@@H]2CSSC[C@@H]3NC(=O)[C@H](C(C)C)NC(=O)[C@H](CC(C)C)NC(=O)[C@H](CC(N)=O)NC(=O)[C@@H]4CCCN4C(=O)[C@H](CCCNC(=N)N)NC(=O)[C@H](CSSC[C@H](NC(=O)[C@@H](N)CC(=O)O)C(=O)N[C@@H](CC(C)C)C(=O)NCC(=O)N[C@@H](Cc4ccccc4)C(=O)N[C@@H](CCSC)C(=O)N[C@@H](CCCNC(=N)N)C(=O)N[C@@H](CCCCN)C(=O)N2)NC(=O)[C@H](CSSC[C@@H](C(=O)N[C@@H](CCCCN)C(=O)N[C@@H](Cc2ccccc2)C(=O)N[C@H](C(=O)N[C@@H](Cc2ccccc2)C(N)=O)C(C)C)NC(=O)[C@H](Cc2c[nH]c4ccccc24)NC(=O)[C@H](CCCCN)NC(=O)[C@H](Cc2c[nH]cn2)NC(=O)[C@H]([C@@H](C)O)NC(=O)[C@H](CCCNC(=N)N)NC(=O)[C@H](CO)NC3=O)NC(=O)[C@H](CCCCN)NC(=O)[C@H](CC(=O)O)NC(=O)[C@H](CC(N)=O)NC(=O)[C@H](CC(=O)O)NC(=O)[C@@H]2CCCN2C1=O [compound 377] (H-DCLGFMRKCIPDNDKCCRPNLVCSRTHKWCKFVF-NH2; disulfide 2-17, 9-23, 16-30)	7.30	5.16	7.30
CC[C@H](C)[C@@H]1NC(=O)[C@@H]2CSSC[C@@H]3NC(=O)[C@H](C(C)C)NC(=O)[C@H](CC(C)C)NC(=O)[C@H](CC(N)=O)NC(=O)[C@@H]4CCCN4C(=O)[C@H](CCCNC(=N)N)NC(=O)[C@H](CSSC[C@H](NC(=O)[C@@H](N)CC(=O)O)C(=O)N[C@@H](CC(C)C)C(=O)NCC(=O)N[C@@H](Cc4ccccc4)C(=O)N[C@@H](CCSC)C(=O)N[C@@H](CCCNC(=N)N)C(=O)N[C@@H](CCCCN)C(=O)N2)NC(=O)[C@H](CSSC[C@@H](C(=O)N[C@@H](CCCCN)C(=O)NCC(=O)N[C@H](C(=O)N[C@@H](Cc2ccccc2)C(N)=O)C(C)C)NC(=O)[C@H](Cc2c[nH]c4ccccc24)NC(=O)[C@H](CCCCN)NC(=O)[C@H](Cc2c[nH]cn2)NC(=O)[C@H]([C@@H](C)O)NC(=O)[C@H](CCCNC(=N)N)NC(=O)[C@H](CO)NC3=O)NC(=O)[C@H](CCCCN)NC(=O)[C@H](CC(=O)O)NC(=O)[C@H](CC(N)=O)NC(=O)[C@H](CC(=O)O)NC(=O)[C@@H]2CCCN2C1=O [compound 378] (H-DCLGFMRKCIPDNDKCCRPNLVCSRTHKWCKGVF-NH2; disulfide 2-17, 9-23, 16-30)	6.15	4.95	6.21
CC[C@H](C)[C@@H]1NC(=O)[C@@H]2CSSC[C@@H]3NC(=O)[C@H](C(C)C)NC(=O)[C@H](CC(C)C)NC(=O)[C@H](CC(N)=O)NC(=O)[C@@H]4CCCN4C(=O)[C@H](CCCNC(=N)N)NC(=O)[C@H](CSSC[C@H](NC(=O)[C@@H](N)CC(=O)O)C(=O)N[C@@H](CC(C)C)C(=O)NCC(=O)N[C@@H](Cc4ccccc4)C(=O)N[C@@H](CCSC)C(=O)N[C@@H](CCCNC(=N)N)C(=O)N[C@@H](CCCCN)C(=O)N2)NC(=O)[C@H](CSSC[C@@H](C(=O)N[C@@H](CCCCN)C(=O)N[C@@H](CC(N)=O)C(=O)N[C@H](C(=O)N[C@@H](Cc2ccccc2)C(N)=O)C(C)C)NC(=O)[C@H](Cc2c[nH]c4ccccc24)NC(=O)[C@H](CCCCN)NC(=O)[C@H](Cc2c[nH]cn2)NC(=O)[C@H]([C@@H](C)O)NC(=O)[C@H](CCCNC(=N)N)NC(=O)[C@H](CO)NC3=O)NC(=O)[C@H](CCCCN)NC(=O)[C@H](CC(=O)O)NC(=O)[C@H](CC(N)=O)NC(=O)[C@H](CC(=O)O)NC(=O)[C@@H]2CCCN2C1=O [compound 379] (H-DCLGFMRKCIPDNDKCCRPNLVCSRTHKWCKNVF-NH2; disulfide 2-17, 9-23, 16-30)	5.31	4.98	5.16

From patent US9340590B2 (priority 2011, dated 2016)
